Data published in the supplement of paper PMC11451515.

Tests used:
Assay in all cases: AUC of viability dose-response curve (% viability x log10 dose units); higher = less sensitive
Settings in all cases: 48 h
[1] = test system: P12-Ichikawa
In short: (§1)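 Medium-adapted leukemia cells in 1536-well plates, at 500 or 1000 cells/well, were incubated for 48 h at 37°C with library compounds in DMSO at 11 threefold doses from 47 μM to 0.79 nM. CellTiter-Glo One luminescence normalised per plate to DMSO and cell-free wells was fitted with a four-parameter log-logistic model over log10 doses. Area under the curve was integrated from this fit by trapezoidal rule, with curves beyond full viability scaled and failed quality-control curves removed.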

[2] = test system: NOMO1
In short: as §1

[3] = test system: SEM cells
In short: as §1

[4] = RPMI 5 mM glucose + 10% dialyzed FBS

Compound	AUC of viability dose-response curve ([1]; HPLM + 10% dialyzed FBS)	AUC of viability dose-response curve ([1]; RPMI 5 mM glucose + 10% FBS)	AUC of viability dose-response curve [1, 4]	AUC of viability dose-response curve ([2]; HPLM + 10% dialyzed FBS)	AUC of viability dose-response curve ([2]; RPMI 5 mM glucose + 10% FBS)	AUC of viability dose-response curve [2, 4]	AUC of viability dose-response curve ([3]; HPLM + 10% dialyzed FBS)	AUC of viability dose-response curve ([3]; RPMI 5 mM glucose + 10% FBS)	AUC of viability dose-response curve [3, 4]
CN(C)c1ccc(-c2nc3c(N4CCN(CC(=O)Nc5nccs5)CC4)c(Cl)cnc3[nH]2)cc1	468	466	428	431	466	460	429	420	421
COCC(=O)NC/C=C/c1ccc2ncnc(Nc3ccc(Oc4ccc(C)nc4)c(C)c3)c2c1	464	437	436	329	372	384	430	460	412
COc1cc(C[C@@H](CO)[C@H](CO)Cc2ccc(O)c(OC)c2)ccc1O	464	457	439	467	456	476	452	444	455
COCCCC/C(=N\OCCN)c1ccc(C(F)(F)F)cc1	400	371	373	358	369	369	389	398	462
CN(C[C@@H]1COCCO1)[S+]([O-])(=O)NC2=CC3=C(C=C2)\C=C/C4=C(C=C(C=N4)C5=C[N](C)N=C5)C3=O	379	374	357	324	371	355	314	301	292
CCN1\C=C(C(O)=O)/C(=O)C2=C1C(=C(N3CCNC(C)C3)C(=C2)F)F (stereo unspecified)	462	457	461	458	471	452	467	471	469
C=C1CCC2[C@](C)(CO)C(O)CC[C@]2(C)C1C/C=C1/C(=O)OCC1O (stereo partly specified)	454	457	448	395	459	453	439	383	420
CCCC[S+](=N)([O-])CCC(N)C(=O)O (stereo unspecified)	453	469	465	441	462	461	459	462	458
COC(=O)[C@H](Cc1ccccc1)NC(=O)[C@@H](N)CC(=O)O	454	459	458	453	461	437	476	472	467
